Laboratory results published in patent publication US10329304B2, “Compounds and methods for inhibition of hedgehog signaling and phosphodiesterase” (Vanderbilt University, priority 2014, dated 2019).
Read-outs that look alike come from different tables or passages of the source.

Tests used:
[1] = biological target: T1, PDE4D3 (Homo sapiens, UniProt Q08499); assay: In vitro PDE assay; assay type: biochemical
T1 construct: purchased BPS Biosciences (San Diego, Calif.); kinetic studies by Millipore (St. Louis, Mo.)
T1 sequence (Q08499 1-673 isoform Q08499-2): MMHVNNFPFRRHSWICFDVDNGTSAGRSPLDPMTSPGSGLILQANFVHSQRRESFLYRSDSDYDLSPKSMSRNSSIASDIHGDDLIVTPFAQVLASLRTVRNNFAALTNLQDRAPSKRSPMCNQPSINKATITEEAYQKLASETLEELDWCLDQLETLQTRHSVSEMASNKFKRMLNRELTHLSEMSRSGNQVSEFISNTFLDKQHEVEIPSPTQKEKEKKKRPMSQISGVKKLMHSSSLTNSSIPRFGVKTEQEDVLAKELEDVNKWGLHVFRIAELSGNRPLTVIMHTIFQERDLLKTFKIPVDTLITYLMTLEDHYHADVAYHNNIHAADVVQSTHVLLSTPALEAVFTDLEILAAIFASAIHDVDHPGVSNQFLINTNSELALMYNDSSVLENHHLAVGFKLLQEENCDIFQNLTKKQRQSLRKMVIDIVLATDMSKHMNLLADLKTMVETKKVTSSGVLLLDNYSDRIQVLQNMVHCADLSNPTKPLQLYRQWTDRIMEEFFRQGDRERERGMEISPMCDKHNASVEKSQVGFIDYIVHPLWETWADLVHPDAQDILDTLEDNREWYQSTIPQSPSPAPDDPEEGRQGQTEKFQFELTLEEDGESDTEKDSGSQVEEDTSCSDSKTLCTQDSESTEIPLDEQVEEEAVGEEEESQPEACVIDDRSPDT
Protocol: (§1) In vitro PDE profiling and dose-response assays were performed by BPS Biosciences (San Diego, Calif.). Kinetic Mechanism of inhibition studies were conducted by Millipore (St. Louis, Mo.). In brief, the PDE assay measures fluorescent polarization of FAM-AMP as FAM-cAMP is converted to FAM-AMP by PDE), the binding agent.
(§2) A series of dilutions of the test compound were prepared with 10% DMSO in assay buffer and 5 μl of the dilution was added to a 50 μl reaction so that the final concentration of DMSO is 1% in all of reactions. All of the PDE enzymatic reactions were conducted in duplicate at room temperature for 60 minutes in a 50 μl mixture containing PDE assay buffer (10 mM Tris-HCl, pH7.4, 10 mM MaCl2, 0.05% Tween 20), 100 nM FAM-cAMP, a PDE enzyme and a test compound.
After the enzymatic reaction, 100 μl of a binding solution (1:100 dilution of the binding agent, which contains the nano beads that recognize FAM-AMP, with the binding agent diluent) was added to each reaction and the reaction was performed at room temperature for 60 minutes. Fluorescence intensity was measured at an excitation of 485 nm and an emission of 528 nm using a Tecan Infinite M1000 microplate reader. Assays done by Millipore were conducted similarly with changes noted below: […]

[2] = tested on: Gli1 mRNA; assay: Hh % Inh.: SAG-induced Gli1 expression in C3H10T½ cells (qPCR); assay type: cell-based; conditions: Mus musculus, C3H 10T1/2, SAG-induced (100 nM), 24 hours; for inhibition at 1 µM: 1 pM [sic], read-out: C3H10T1/2 qPCR, Gh1 mRNA % Inh., 1 pM; for inhibition at 10 µM: 10 pM [sic], read-out: C3H10T1/2 qPCR, Gh1 mRNA % Inh., 10 pM
Protocol: Compounds are dosed from 10 mM DMSO stock solutions, and mRNA is isolated after 24 hours of compound treatment. mRNA is reverse transcribed to produce cDNA which is quantified by quantitative polymerase chain reaction (qPCR) in triplicate and levels are normalized to GAPDH levels. Data is presented as percent inhibition compared to positive control (SAG).

[3] = tested on: Hedgehog signaling (TM3-Gli-Luc); assay: TM3-Gli-Luc luciferase reporter assay stimulated with 20 nM SAG; assay type: cell-based
Protocol: TM3-Gli-Luc cells were maintained on sterile 0.1% gelatin (from porcine skin, Type A, prepared in MilliQ water, autoclaved, then sterile-filtered) in 1:1 Dulbecco's Modified Eagle Medium (DMEM)/F12 supplemented with 5% horse serum, 2.5% fetal bovine serum (FBS), and 15 mM HEPES, hereafter referred to as TM3 Culture Medium. For small molecule evaluation, TM3-Gli-Luc cells were assayed on 0.1% gelatin in DMEM/F12 supplemented with 2.5% FBS and 15 mM HEPES, hereafter referred to as TM3Luc Medium. Sufu^−/− cells were maintained in DMEM supplemented with 4.5 g/L D-glucose, L-glutamine, 25 mM HEPES, and 10% FBS, hereafter referred to as D10 FBS. For small molecule evaluation, Sufu^−/− cells were assayed in DMEM supplemented with 4.5 g/L D-glucose, L-glutamine, 25 mM HEPES, and 0.5% FBS, hereafter referred to as D0.5 FBS. All cells were cultured at 37° C. with a 5% CO2 atmosphere.
On the day of cell plating, 96-well plates were coated with 50 μL/well of sterile 0.1% gelatin for 5 minutes then aspirated and replaced with 50 μL/well of TM3 Culture Medium. TM3-Gli-Luc cells were seeded at a density of 5,000 cells/well in TM3 Culture Medium and incubated for 24 hours. A master mix of 20 nM SAG in TM3Luc Medium was prepared, and small molecule solutions were prepared by adding the desired amount of compound from 10 mM DMSO stock to TM3Luc Medium containing 20 nM SAG. Negative control was prepared by adding an equi-volume amount of DMSO as compared to small molecule treated conditions to TM3Luc Medium not containing SAG. Cell plating medium was aspirated and replaced with 100 μL/well of prepared small molecule-containing media, and plates were incubated for 48 hours before proceeding to luciferase activity and cell viability reading.
TM3Luc Medium from compound treated plates was aspirated and replaced with 82 μL/well of Glo Lysis Buffer (Promega, Madison, Wis., USA), and plates were shaken at 300 rpm and room temperature for 12 minutes. Lysate was split between two white 96-well plates, 45 μL/well and 25 μL/well for luciferase reading and cell viability respectively. For luciferase activity monitoring, 45 μL/well of Steady Glo (Promega, Madison, Wis., USA) was added to 45 μL/well of cell lysate, incubated at room temperature for 5 minutes, then luminescence was measured on a Turner Biosystems Modulus Microplate Reader (Sunnyvale, Calif., USA) with an integration time of 0.5 seconds. For cell viability measurement, 25 μL/well of Cell Titer Glo (Promega, Madison, Wis., USA) (prepared by 1:10 dilution with Glo Lysis Buffer) was added to 25 μL/well of cell lysate, incubated at room temperature for 5 minutes, then luminescence was measured as above.
Luciferase activity data (Steady Glo) was divided by corresponding cell viability data (Cell Titer Glo) to arrive at a live cell number-normalized luciferase activity reading. The average of negative control data (DMSO treated) was subtracted from all wells, and percent activity was calculated by dividing all wells by the positive control (SAG treated) average. […] At least two independent assays tested on separate days were averaged to provide EC50±standard error of the mean.

[4] = tested on: Hedgehog signaling (Gli-Luc reporter); assay: Hh Gli-Luciferase reporter assay in Shh-Light2 cells; assay type: cell-based, mouse; conditions: for EC50: Mus musculus, Shh Light2
Protocol: For Hh signaling assays, Shh-Light2 cells stably transfected with Gli-Luciferase reporter construct were used along with Shh-conditioned media, as previously described^7. Alternatively, 3 μM purmorphamine or 20 nM Smoothened agonist (SAG) (Santa Cruz Biotechnology, Santa Cruz, Calif.) was used to induce Hh signaling. Reporter cells were seeded in 96-well plates and incubated overnight with the various concentrations of eggmanone and Shh-conditioned media. To assess the effects of overexpression of Gli-2, PDE4D3 and DN-PDE4D3 on Hh signaling, mammalian expression vectors containing these constructs were transfected into Shh-Light2 cells in 96-well plates using Fugene6 (Roche), according to manufacturer's instructions. The transfected or Shh-stimulated cells were incubated overnight with the various concentrations of compound. The cells were then lysed, and cell extracts were subjected to Steady-Glo luciferase assay (Promega) according to manufacturer's instructions. The results were normalized to cell titer, as determined using Cell Titer-Glo luminescence assay (Promega).

[5] = biological target: PDE4D (Homo sapiens, UniProt Q08499); assay: PDE4 inhibition assay (PDE4D IC50); assay type: biochemical; conditions: Table 8; read-out: PDE4 Inhibition Assay (IC50)
Sequence of PDE4D (Q08499 1-673 isoform Q08499-2): as above
Protocol: as §1, §2
After the enzymatic reaction, 100 μl of a binding solution (1:100 dilution of the binding agent, which contains the nano beads that recognize FAM-AMP, with the binding agent diluent) was added to each reaction and the reaction was performed at room temperature for 60 minutes. Fluorescence intensity was measured at an excitation of 485 nm and an emission of 528 nm using a Tecan Infinite M1000 microplate reader. Assays done by Millipore were conducted similarly with changes noted below:
Hedgehog signaling inhibition and PDE4 inhibition of various compounds disclosed herein was assayed as described herein above.

[6] = Lipophilic efficiency (LipE = pEC50 − cLogP) and cLogP; conditions: calculated as pEC50 - cLogP (Molinspiration Cheminformatics); Table 13
Protocol: Therefore, we prioritized phenotypic analog evaluation in the Gli-responsive luciferase reporter line TM3-Gli-Luc stimulated with 20 nM Smo agonist (SAG) while concurrently monitoring non-specific cellular toxicity. Additionally, lipophilic efficiency (LipE), a concurrent readout of a compound's potency (pEC50) and lipophilicity (cLogP) derived by subtracting the latter from the former, was utilized to optimize solubility properties (Table 12B), allowing for straightforward tracking of compounds with improvements in both parameters.

[7] = tested on: zebrafish embryos; assay: Zebrafish embryo phenotypic assay (ZF); assay type: in vivo; conditions: wild-type embryonic zebrafish, dosed 5 hpf
Outline: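 Wild-type AB zebrafish embryos (~10) in E3 egg water dosed at 5 hours post-fertilization from 1 mM or 10 mM DMSO stock. Scored for gross morphological changes at 24, 48 and 72 hpf. Screening run used 5 μM final, added ~4 hpf, incubated at 28.5 °C.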

[8] = Table 9A, read-out: TM3 G8 Luciferase EC 50
[9] = Table 8, read-out: Hh Inhibition Assay (EC50)
[10] = TM3-Gli-Luc reporter line stimulated with 20 nM SAG, mean ± SEM, Table 13, read-out: TM3-Gli-Luc EC50
[11] = Table 9B, read-out: Shh Light2 Luc EC50

| EC50 [4, 9] | IC50 [5] | Compound | other results |
| --- | --- | --- | --- |
| – | – | C=C(C)Cn1c(SCC(=O)c2cccs2)nc2sc3ccccc3c2c1=O [JEH-4-006] | IC50 ([1]; Table 9A): > 100 µM; inhibition at 1 µM [2]: 14.3%; inhibition at 10 µM [2]: 79.3%; EC50 ([2]; read-out: C3H10T1/2 qPCR, Gh1 mRNA EC50): 4.3 µM; EC50 [3, 8]: > 50 µM |
| 20 µM | 25 µM | C=CCn1c(SCC(=O)c2ccccn2)nc2sc3c(c2c1=O)CCCC3 [Formula (16)] | – |
| – | – | O=C(CSc1nccc(=O)n1C1CC1)c1ccccc1 [Formula 14c] | Hh inhibitory activity / potency in words ([3]; 20 nM SAG): potency improvements over EGM1; EC50 [3, 10]: 1.16 ± 0.39 µM; LipE [6]: 2.46 |
| – | > 100 µM | C=C(C)Cn1c(SCC(=O)c2ccc(-c3ccccc3)cc2)nc2sc3c(c2c1=O)CCCC3 [Formula (19)] | Hh Inhibition Assay (EC50, μM) ([4]; Table 8): Inactive |
| – | 27 µM | C=CCn1c(SCC(=O)c2nccs2)nc2sc3c(c2c1=O)CCCC3 [Formula (10)] | Hh Inhibition Assay (EC50, μM) ([4]; Table 8): Inactive |
| – | > 100 µM | C=CCn1c(SCC(=O)N2Cc3ccccc3C2)nc2sc3c(c2c1=O)CCCC3 [Formula (18)] | Hh Inhibition Assay (EC50, μM) ([4]; Table 8): Inactive |
| 10 µM | 16 µM | C=C(C)Cn1c(SCC(=O)c2ccncc2)nc2sc3c(c2c1=O)CCCC3 [Formula (11)] | – |
| – | > 100 µM | C=CCn1c(SCC(=O)c2cccs2)nc2sc3c(c2c1=O)CCCC3 [Formula (2)] | Hh Inhibition Assay (EC50, μM) ([4]; Table 8): Inactive |
| – | > 100 µM | C=CCn1c(SCC(=O)N2CCOCC2)nc2sc3c(c2c1=O)CCCC3 [Formula (14)] | Hh Inhibition Assay (EC50, μM) ([4]; Table 8): Inactive |
| 20 µM | 8.5 µM | C=C(C)Cn1c(SCC(=O)N2CCN(C)CC2)nc2sc3c(c2c1=O)CCCC3 [Formula (7)] | – |
| – | – | C=C(C)Cn1c(SCC(=O)c2cccs2)nccc1=O [Formula 19a] | EC50 [3, 10]: 0.931 ± 0.11 µM; LipE [6]: 2.06 |
| 5 µM | 7.6 µM | C=CCn1c(SCC(=O)N2CCCC[C@H]2C)nc2sc3c(c2c1=O)CCCC3 [Formula (6)] | – |
| 10 µM | 2.08 µM | C=CCn1c(SCC(=O)N2CCN(C)CC2)nc2sc3c(c2c1=O)CCCC3 [Formula (8)] | – |
| – | – | C=CCn1c(SCC(=O)c2ccc(OC)cc2)nc2sc3c(c2c1=O)CCCC3 [HI798] | EC50 [4, 11]: > 10 µM; IC50 ([1]; Table 9B): > 100 µM |
| 5 to 20 µM | 3.9 µM | C=C(C)Cn1c(SCC(=O)N2CCOCC2)nc2sc3c(c2c1=O)CCCC3 [Formula (13)] | – |
| 7.5 µM | 6.4 µM | C=C(C)Cn1c(SCC(=O)c2nccs2)nc2sc3c(c2c1=O)CCCC3 [Formula (9)] | – |
| – | – | O=C(CSc1nc2sc3c(c2c(=O)n1CC1CC1)CCCC3)c1cccs1 [JEH-3-039-1] | IC50 ([1]; Table 9A): 1 µM; inhibition at 1 µM [2]: -3.3%; inhibition at 10 µM [2]: 81.6%; EC50 [3, 8]: 2.96 µM |
| 15 µM | 8.2 µM | C=CCn1c(SCC(=O)c2ccncc2)nc2sc3c(c2c1=O)CCCC3 [Formula (12)] | – |
| – | 46 µM | C=C(C)Cn1c(SCC(=O)N2Cc3ccccc3C2)nc2sc3c(c2c1=O)CCCC3 [Formula (17)] | Hh Inhibition Assay (EC50, μM) ([4]; Table 8): Inactive |
| – | – | O=C(CSc1nc2sc3c(c2c(=O)n1C1CC1)CCN(C(=O)c1ccco1)C3)c1ccccc1 [KYK-1-75] | ZF Phenotype EC100 [7]: >50 µM; IC50 ([1]; Table 9A): 6.4 µM; EC50 [3, 8]: 3.59 µM |
| – | – | CCn1c(SCC(=O)c2ccc(Cl)cc2)nc2sc3c(c2c1=O)CCC3 [HI113] | EC50 [4, 11]: > 20 µM; IC50 ([1]; Table 9B): 4.1 µM |
| 15 µM | 23 µM | C=C(C)Cn1c(SCC(=O)c2ccccn2)nc2sc3c(c2c1=O)CCCC3 [Formula (15)] | – |
| 2.5 µM | 1.2 µM | C=C(C)Cn1c(SCC(=O)N2CCCC[C@H]2C)nc2sc3c(c2c1=O)CCCC3 [Formula (5)] | – |

| Compound | EC50 [4, 9] | IC50 [5] | other results |
| --- | --- | --- | --- |
| C=C(C)Cn1c(SCC(=O)c2ccccc2)nc2sc3c(c2c1=O)CCCC3 [Formula (3)] | 3 µM | 1.27 µM | – |
| C=C(C)Cn1c(SCC(=O)c2cccs2)nc2sc3c(c2c1=O)CCCC3 [Formula (1), 3-(2-methylallyl)-2-((2-oxo-2-(thiophen-2-yl)ethyl)thio)-5,6,7,8-tetrahydrobenzo[4,5]thieno[2,3-d]pyrimidine-4(3H)-one] | 1.5 µM | 0.893 µM | – |
